Assay results from patent US5270313A, “Sulfonamides and uses” (Hoffmann-La Roche Inc., priority 1991, dated 1993).

Key:
endothelin receptors = experiment: Inhibition of endothelin binding to human placenta membranes (125I-endothelin); conditions: concentration required to inhibit the specific binding of 125I-endothelin by 50%, 125I-endothelin 20 pM, 20° C. for 2 hours or 4° C. for 24 hours
Experimental: I. Inhibition of endothelin binding to human placenta membranes (see Life Sci 44:1429 (1989)
Human placenta is homogenized in 5 mM Tris buffer, pH 7.4, which contains 1 mM MgCl2 and 250 mM sucrose. The product of the homogenization is centrifuged at 4° C. for 15 minutes at 3000 g. The supernatant containing the plasma membrane fractions is centrifuged for 30 minutes at 72000 g and the precipitate obtained from, in each case, 10 g of original tissue is suspended in 1 ml of 75 mM Tris buffer, pH 7.4, containing 25 mM MgCl2 and 250 mM sucrose and freeze-dried at -20° C. in 1 ml aliquots.
For the binding assay, the freeze-dried membrane preparations are thawed and, after centrifugation at 20° C. for 10 minutes at 25000 g, re-suspended in assay buffer (50 mM Tris buffer, pH 7.4, containing 25 mM MnCl2, 1 mM EDTA and 0.5% bovine serum albumin). 100 μl of this membrane suspension, containing 70 μg of protein, are incubated with 50 μl of ^125 I-endothelin (specific activity 2200 Ci/mMol) in assay buffer (25000 cpm, final concentration 20 pM) and 100 μl of assay buffer which contains varying concentrations of the test compound. The incubation is carried out at 20° C. for 2 hours or at 4° C. for 24 hours. The separation of free and membrane-bound radioligands is carried out by filtration over a glass fiber filter.
The inhibitory activity of compounds of formula I determined in this test procedure is given in Table 1 as the IC50, that is, as the concentration [μM] which is required to inhibit the specific binding of ^125 I-endothelin by 50%.

[1] = system: endothelin-induced contractions in isolated aorta rings; experiment: Inhibition of endothelin-induced contractions in isolated aorta rings of the rat; format: cell-based, rat (Wistar-Kyoto); conditions: for Dosage ratio (correcting shift): shift to higher values of the EC50 of endothelin induced by 100 μm of test compound, endothelium removed
Experimental: II. Inhibition of endothelin-induced contractions in isolated aorta rings of the rat
Rings with a thickness of 5 mm were dissected from the thorax aorta of adult Wistar-Kyoto rats. The endothelium was removed by rubbing the internal surface slightly. Each ring was immersed in an isolated bath at 37° C. in 10 ml of Krebs-Henseleit solution while gassing with 95% O2 and 5% CO2. The isometric tension of the rings was measured. The rings were stretched to an initial tension of 3 g. After incubation with the test compound or vehicle for 10 minutes cumulative doses of endothelin-1 were added. The activity of the test compound was determined by calculating the dosage ratio, that is, the correcting shift (shift to higher values) of the EC50 of endothelin induced by 100 μm of test compound, whereby EC50 denotes the endothelin concentration required for a half-maximum contraction. […] The EC50 of endothelin in the absence of test compounds is 0.3 nM.

vasoconstriction = experiment: Inhibitory activity on vasoconstriction in vivo in the rat (renal ischemia, renal blood flow); conditions: 10 minutes prior to 45 min renal ischemia, control reduced by 43±4%
Experimental: III. The inhibitory activity of the compounds of formula I on vasoconstriction can be observed in vivo in the rat in the test procedure described hereinafter:
Rats were anaesthetized with Na thiobutabarbital (100 mg/kg i.p.). […] A Doppler probe was placed around the left renal artery and attached to a Doppler measuring device. A renal ischemia was produced by pinching off the left renal artery at its point of emergence for 45 minutes. The test compounds were administered 10 minutes prior to the onset of the ischemia intra-arterially (i.a.) in doses of 5 mg/kg or intraveneously (i.v) in doses of 10 mg/kg. In control experiments, the renal blood flow was reduced by 43±4% in comparison to the pre-ischemic value.

Row | Compound | IC50 (endothelin receptors) [nM] | Dosage ratio (correcting shift) [1] | % Decrease in the renal of blood flow (vasoconstriction; i.a., 5 mg/kg) [%] | % Decrease in the renal of blood flow (vasoconstriction; i.v., 10 mg/kg) [%] | EC50 ([1]; in the absence of test compounds, half-maximum contraction) [nM]
1 | O=S(=O)(Nc1ncnc(OCCO)c1-c1ccc(Cl)cc1)c1ccc(C(F)(F)F)cc1 [Example 1, N-[5-(p-chlorophenyl)-6-(2-hydroxyethoxy)-4-pyrimidinyl]-α,α,α-trifluoro-p-toluenesulfonamide] | 5000 | 30 | 7 |  | 
2 | COc1ccc(-c2c(NS(=O)(=O)c3ccc(C(C)C)cc3)ncnc2OCCO)cc1 [Example 54, N-[6-(2-hydroxyethoxy)-5-(p-methoxyphenyl)-4-pyrimidinyl]-p-isopropylbenzene-sulfonamide] | 3000 | 21 |  |  | 
3 | COc1ccccc1Cc1c(NS(=O)(=O)c2ccc(C(C)C)cc2)ncnc1OCCO [Example 63] | 1600 | 23 |  |  | 
4 | COc1ccccc1Cc1c(NS(=O)(=O)c2ccc(C(C)(C)C)cc2)ncnc1OCCO [Example 64, p-t-butyl-N-[6-(2-hydroxyethoxy)-5-(o-methoxy-benzyl)-4-pyrimidinyl]benzenesulfonamide] | 2000 | 19 |  |  | 
5 | CSc1ccccc1Cc1c(NS(=O)(=O)c2ccc(C(C)C)cc2)ncnc1OCCO [Example 66] | 500 | 96 |  |  | 
6 | Cc1ccc(-c2c(NS(=O)(=O)c3ccc(C(C)C)cc3)ncnc2OCCO)cc1 [Example 83] | 700 | 86 |  | 29 | 
7 | Cc1ccc(-c2c(NS(=O)(=O)c3ccc(C(C)(C)C)cc3)ncnc2OCCO)cc1 [Example 84, p-tert-butyl-N-[6-(2-hydroxyethoxy)-5-p-tolyl-4-pyrimidinyl]benzenesulfonamide] | 1000 | 106 |  |  | 
8 | endothelin: endothelin-1, contractile agonist added in cumulative doses to rat aorta rings [reference compound] |  |  |  |  | 0.3
